Data set [1] relates to Mus musculus. The data set can be described thus: Anti-inflammatory activity in zymosan-induced C57BL/6J mouse peritonitis model assessed as reduction in total cell count in peritoneal cavity at 125 ng, ip pretreated for 30 mins followed by zymosan treatment and redosing of test compound at 1 hr post zymosan addition and measured at 24 hrs post zymosan addition by flow cytometry relative to basal level (reference value: 14). Type of data set: functional.

The test system of data set [2] is Mus musculus. The data set can be described thus: Anti-inflammatory activity in zymosan-induced C57BL/6J mouse peritonitis model assessed as total cell count in peritoneal cavity at 125 ng, ip pretreated for 30 mins followed by zymosan treatment and redosing of test compound at 1 hr post zymosan addition and measured at 24 hrs post zymosan addition by flow cytometry (reference value: 100%). Type of data set: functional.

Data set [3] has as its system Mus musculus. The data set can be described thus: Anti-inflammatory activity in zymosan-induced C57BL/6J mouse peritonitis model assessed as PMN leukocytes level in peritoneal cavity at 125 ng, ip pretreated for 30 mins followed by zymosan treatment and redosing of test compound at 1 hr post zymosan addition and measured at 24 hrs post zymosan addition by flow cytometry (reference value: 100%). Type of data set: functional.

Data set [4] is filed under the species Homo sapiens. The data set can be described thus: Activation of Luc-fused NFkB (unknown origin) expressed in non-stimulated human THP1 cells assessed as relative luminescence unit at 10^-10 M after 24 hrs by luciferase reporter gene assay (reference value: 100%). Type of data set: cell-based.
The test system of data set [5] is J774.1. The data set can be described thus: Anti-inflammatory activity in mouse J774.1 cells assessed as reduction in LPS-stimulated TNFalpha level at 10 nM preincubated for 1 hr followed by LPS stimulation for 24 hrs by ELISA relative to control. It counts as functional. Further details: scale not given: the % may be the effect or the level left.
Data set [6] has as its system THP-1. The data set can be described thus: Cytotoxicity against human THP1 cells harboring NFkB-Luc assessed as LDH release at 10'6 M after 24 hrs by spectrophotometric method relative to control. Type of data set: cell-based. Conditions: thp-1, 24 h.
In data set [7] the test system is Mus musculus. The data set can be described thus: Anti-inflammatory activity in zymosan-induced C57BL/6J mouse peritonitis model assessed as total cell count in peritoneal cavity at 43 ng, ip pretreated for 30 mins followed by zymosan treatment and redosing of test compound at 1 hr post zymosan addition and measured at 24 hrs post zymosan addition by flow cytometry (reference value: 100%). Type of data set: functional.

Data set [8] has as its system J774.1. The data set can be described thus: Anti-inflammatory activity in mouse J774.1 cells assessed as reduction in LPS-stimulated TNFalpha level at 100 nM preincubated for 1 hr followed by LPS stimulation for 24 hrs by ELISA relative to control. It counts as functional. Further details: scale not given: the % may be the effect or the level left.

As to `CCCCC[C@H](O)/C=C/C=C\C=C\C=C\[C@@H](O)[C@@H](O)CCCC(=O)O` [LIPOXIN A4], in data set [1], the “fold change (FC)” value is 5. Also, the Emax in data set [2] came to 35.3%; in data set [3], 35.9%.

As to `CCCCC[C@@H](O)c1nc(-c2ccccc2)n(-c2ccccc2)c1/C=C/[C@@H](O)[C@@H](O)CCCC(=O)OC`, the Activity in data set [4] came out at 1.5%; in data set [5], 30%. In addition, the “fold change (FC)” value in data set [6] was 1.1. Moreover, the Emax in data set [7] is 42.5%.

`CCCCC[C@H](O)c1nc(-c2ccccc2)n(-c2ccccc2)c1/C=C/[C@@H](O)[C@@H](O)CCCC(=O)OC`: the Activity in data set [4] worked out at 1.7%; in data set [8], 41%. Further, the “fold change (FC)” value in data set [6] worked out at 1.6. For the same molecule, in data set [7], the Emax came out at 19.5%.
